Some results are limits rather than exact numbers.

The term melting point denotes the temperature of the solid-liquid transition. `CCCN1CC(c2cccc(Br)c2)=C(c2ccc(S(N)(=O)=O)cc2)C1=O` returned a melting point of 162 to 163 °C.
For `CCCN(C(=O)c1cccc(-c2nc(=O)c3ccccc3s2)n1)C(=O)N(C)C` the value was 191 to 192 °C; for `CC(=O)NC[C@H]1CN(c2ccc(N3CCC(O)(C[N+](=O)[O-])CC3)c(F)c2)C(=O)O1`, 186 to 187 °C.
As for `Cc1cccc2c1[nH]c1c(C(=O)O)cccc12`, the figure is 286 °C; as for `O=C(O)c1ccc(SC(Cn2ccnc2)c2ccc(C(F)(F)F)cc2)cc1` (stereo not drawn), 92 to 95 °C.
For `C=CCc1c(OC)cc(Cc2cnc(N)nc2N)cc1OC` the value was 185 to 187 °C; for `Cn1cccc1-c1nsc2ccc(-n3c(=O)cc(C(F)(F)F)[nH]c3=O)cc12`, 125 to 130 °C; for `CC(=O)N(Cc1cc(Br)cc2[nH]c(=O)c(=O)[nH]c12)CP(=O)(O)O`, greater than 280 °C.
`Clc1ccc(N2CCCCC2)cc1`: the melting point was 69 °C.
In turn, `Cc1cc(CBr)nc2ccccc12` returned a melting point of 92 °C.
On to `CCc1cc(C)cc(CC)c1C1C(=O)C2CC(C3OCCCO3)CC2C1=O` (stereo not drawn), for which the melting point lay in the range of 100 to 101 °C.
For `NC(=NN=Cc1c(Cl)cccc1Cl)Nc1c(Cl)cccc1Cl` the value was 230 to 231 °C; for `CCOc1cccc(-c2ccc(C3=CCN(S(=O)(=O)CC(=O)NO)CC3)cc2C)c1`, 151 to 153 °C; for `CNc1nc(Br)cn2cc(C(N)=O)nc12`, 312 °C.
For `COc1cccc(C2CCCCN(C)C2=O)c1` (stereo not drawn) the value was 73 to 74 °C; for `O=c1[nH]c2ccccc2n2cnc(-c3ccc(F)cc3)c12`, greater than 300 °C.
As for `C/C(=C\CC1OC(=O)NC1=O)c1cccc(Cc2nc(-c3ccccc3)oc2C)c1` (stereo not drawn), the figure is 138 to 139 °C; as for `CC1=C(c2c[nH]c(-c3ccc(F)cc3)c2-c2ccncc2)CCN2CCC[C@@H]12`, 233 to 234 °C; as for `CCOC(=O)C1CN(C)c2nc(Cl)ncc2C1=O` (stereo not drawn), 175 °C.
`CON=Cc1ccc(-c2ccccc2NC(=O)c2c(C)nn(C)c2F)cc1F` showed a melting point of 158 to 161 °C.
Compound `COc1ccc(-c2csc(Nc3ncccc3C)n2)cc1OC` showed a melting point of 264 to 266 °C.
As for `COC(=O)Cc1c(C)n(-c2nc(OC)nc3ccccc23)c2ccc(OC)cc12`, the figure is 152 to 154 °C; as for `CNS(=O)(=O)c1cccc(OC)c1C#N`, 121 to 128 °C.
For `COc1nc(C)cnc1NS(=O)(=O)c1cccnc1-c1ccc(CC(C)(C)C)cc1` the value was 159 to 160 °C.
As for `COC(=O)CN1Cc2cc(C(=O)c3cccnc3)ccc2N=C1SC`, the figure is 114 °C.
For `O=C(Nc1ccc(S(=O)(=O)Oc2ccccc2)cc1[N+](=O)[O-])NS(=O)(=O)Cl`, the melting point was 190 °C.
For `CCOC(=O)c1c2ccc(CC(=O)NOCC(=O)N3CCCC3)ccc-2c(C(=O)OCC)c1N` the value was 168 to 170 °C.
For `COc1ccc2ncc3c(c2c1)C(OC(C)=O)CCC3` (stereo not drawn) the value was 116 to 117 °C.
Compound `CCc1n[nH]c(C(N)=O)c1NC(=O)c1cc(S(C)(=O)=O)ccc1OCC(C)C` registered a melting point of 154 to 162 °C.
For `CNC(=O)Nc1ccc(S(N)(=O)=O)cc1` the value was 211 to 213 °C; for `CCCCS(=O)c1ccc(C#N)nc1` (stereo not drawn), 54 to 55 °C; for `CCOC(=O)c1cc(O)c2nc(C3CC3)n(C)c2c1`, 201 to 202 °C.
For the compound `Fc1cccc(OC2CN(C3CCC(c4c[nH]c5cc(F)ccc45)CC3)C2)c1` (stereo not drawn), the melting point was 117 to 123 °C.
With `CC(C)=CCN1CC(=O)Nc2cc(S(=O)(=O)Oc3ccccc3)ccc21`, the melting point is 132 °C.
For `c1nnnn1C1CN2CCC1CC2` (stereo not drawn) the value was 83 to 84 °C; for `O=C(O)CNC(=O)c1ccc([N+](=O)[O-])c(F)c1`, 136 to 138 °C; for `CCOC(=O)c1[nH]c(COC)nc1C(C)(C)O`, 112 to 113 °C.
For the compound `c1ccc2ncc(N3CCNCC3)cc2c1`, the melting point is 87.7 to 88.5 °C.
For `C[C@H]([C@H](O)c1ccc(O)c(O)c1)N1CCC(O)(c2ccccc2)CC1` (relative stereo) the value was 167 to 168 °C; for `N#Cc1ccc2c(c1)C(=O)NC(C(Cl)(Cl)Cl)O2` (stereo not drawn), 212 to 214 °C.
For `O=C(O)C(O)c1ccc2nc(-c3ccc(Cl)cc3)oc2c1` (stereo not drawn) the value was 222 to 224 °C; for `O=C(O)C=C(C(=O)c1ccc(Cl)c(Cl)c1)c1ccccc1`, 101 to 103 °C; for `CN1C2CCC1CC(c1c[nH]c3cc(F)ccc13)C2` (stereo not drawn), 168 to 169 °C.
As for `COc1cccc(OC)c1C(N)=O`, the figure is 208 to 209 °C; as for `CC1(c2n[nH]c(=O)o2)CC1`, 68 to 70 °C; as for `CCOC(=O)C(=O)Nc1cccc(NC(=O)C(=O)OCC)c1`, 150 °C.
Compound `CCCCCCCCCC(=O)NCCCCCC(=O)OO` returned a melting point of 63 to 67 °C.
As for `COC(=O)c1csc2c(=O)cc(C3CCCCC3)oc12`, the figure is 114 to 119 °C; as for `COC1=C(OC)C(=O)C(CO)=C(C)C1=O`, 52 to 54 °C; as for `Cc1cc(C)c(NC(=O)N(Cc2ccccc2)CC2(c3ccccc3)CCCC2)c(C)c1`, 212 to 214 °C.
As for `Cc1nc(-c2cc3cc(OCCNC[C@H](O)c4cccc(Cl)c4)ccc3o2)cs1`, the melting point is 127 to 129 °C.
For `Cc1c(CCCO)c2c(c(C)c1NC(=O)NCCO)C(c1ccc(C(C)C)cc1)CO2` (stereo not drawn) the value was 153 to 154 °C; for `Oc1c2c(nn1-c1nc3ccc(F)cc3s1)CCc1ccccc1-2`, 246 to 247 °C; for `Cc1ccc(Sc2nc(-c3ccccc3)cnc2N)cc1`, 120 to 122 °C.
The compound `O=[N+]([O-])c1ccc(-n2ccnc2)cc1Sc1cccc2cnccc12` came in with a melting point of 178 to 188 °C.
For `COC(=O)c1ccc(CNc2ccc(C)c(Nc3nccc(-c4cccnc4)n3)c2)cc1` the value was 158 °C.
Regarding `CCCCc1nc(C(C)(O)CC)c(C(=O)O)n1Cc1ccc(-c2ccccc2-c2nnn[nH]2)cc1` (stereo not drawn), the melting point fell in the range of 152 to 154 °C.
For `C=C(C)CNc1cccc(-c2ccnc3c(C(=O)c4cccs4)cnn23)c1` the value was 104 to 106 °C; for `Cc1cc(Cl)ccc1NC(=S)NC(=O)c1ccccc1`, 148 °C.
Consider `O=C(O)C1C(=O)Nc2ccccc2SC1c1ccc2c(c1)OCO2` (mixture of isomers), for which the melting point came out at 110 °C.
For `CC1(C)OC(=O)Nc2ccc(-c3cc([N+](=O)[O-])cc([N+](=O)[O-])c3)cc21` the value was 297 to 298 °C; for `Cc1ccc(N)c(C(=O)CS(C)=O)c1` (stereo not drawn), 145 to 147 °C; for `O=CNc1ccccc1N1CCc2cc(Cl)ccc21`, 126 to 129 °C.
As for `OCc1cn(Cc2ccccc2)nc1OCc1ccccc1`, the figure is 79 to 80 °C; as for `CN1CCc2c(Cl)ccc(CO)c2CC1`, 136 to 140 °C.
In turn, `O=C1COCCOCC(=O)NCCOCCOCCN1` displayed a melting point of 111 °C.
For `Nc1ccc(C(c2ccccc2F)n2ccnc2)cc1[N+](=O)[O-]` (stereo not drawn) the value was 176 °C; for `CCN(CC)CCCOc1ccc(NC(=O)c2ccccc2)cc1NC(=O)c1ccccc1`, 139 to 140 °C.
For `ON=Cc1ccc(Sc2ccccc2)cc1` the value was 74 to 76 °C; for `CCSC1CN2CCC1CC2` (stereo not drawn), 101 to 102 °C.
As for `O=Cc1ccnc2c1NC(=O)c1cccnc1N2C1CC1`, the figure is 220 to 222 °C; as for `CCOC(=O)[C@H](CCc1ccccc1)N[C@@H](C)C(=O)N1N=C(c2ccc(SC)cc2)S[C@H]1C(=O)O`, 163 to 164 °C.
`COCC(=O)Nc1nc(N)nc(NC2CC2)n1` returned a melting point of 152 to 157 °C.
For `CCC(=O)c1sc(SC)c2c1CCc1cnn(C)c1-2` the value was 119 to 120 °C.
`CC(C)(C)c1cc(-c2ccccc2NC(=O)CCCC(=O)O)cc(C(C)(C)C)c1O` yielded a melting point of 132 to 134 °C.
As to `CCCCc1c(C(=O)O)sc2ccc([N+](=O)[O-])cc12`, the melting point was 238 to 240 °C.
As to `COC(=O)C(Oc1ccc(NC(C)=O)cc1)c1ccc(Oc2ccc(Cl)cc2)cc1` (stereo not drawn), the melting point was 152 to 157 °C.
`COc1ccc(-c2cc(C(=O)O)nnc2-c2ccc(OC)cc2)cc1` gave a melting point of 157 to 158 °C.
For `C=CCOC(=O)c1ccc(NC(=O)C(=NO)c2ccc3c(c2)C(C)(C)CCC3(C)C)cc1` the value was 176 to 177 °C; for `CCCCCCCCCCCCN(c1ccccc1)c1cccc2ccccc12`, 116 °C.
As for `CNc1nc2ccccc2n1CCO`, the figure is greater than 200 °C.
As to `Cc1oc(-c2ccccc2)nc1COc1ccc(CCC(C(=O)O)c2c[nH]nc2-c2ccccc2)cc1` (stereo not drawn), the melting point was 104 to 105 °C.
As for `NCC(O)COCCCCCCCCc1ccccc1` (stereo not drawn), the figure is 50 to 54 °C; as for `CCCCc1nc(C(F)(F)F)c(C(=O)OCC)n1Cc1cccc2c1ccn2-c1ccccc1-c1nn[nH]n1`, 93 to 95 °C; as for `C#CC1(O)C(C)CC2(CC1(C)C)OC(C)C(C)O2` (stereo not drawn), 79 to 83 °C.
`CCCCC(=O)Oc1ccc(-c2nc(-c3ccc(Cl)cc3)c(CC(=O)O)s2)cc1` gave a melting point of 197 to 199 °C.
For `CC(=O)NC(C)Cc1cc2c(cc1CCl)OCO2` (stereo not drawn) the value was 132 to 133 °C; for `CC(=O)Oc1cc(C(C)C)ccc1C1(OC(C)=O)C(=O)c2ccccc2C1=O`, 136 to 137 °C.
For `COC(=O)CNc1cccc2c1C(=O)N(C1CCC(=O)NC1=O)C2=O` (stereo not drawn) the value was 210 to 212 °C.
For the compound `CCC(=O)Nc1cccc(NC(=O)C=C(C)OC)c1`, the melting point was found to be 155 °C.
`O=C(O)c1cn(C2CC2)c2c(F)c(N3CCOC(CN4CCOCC4)C3)c(F)cc2c1=O` (stereo not drawn) returned a melting point of 171 to 172 °C.
Take `Cc1nnc(S(C)(=O)=O)o1`: the melting point is 70 to 71 °C.
For `CCCc1c(OCCCS(=O)(=O)c2ccc(C(=O)O)cn2)ccc(C(C)=O)c1O` the value was 177 to 179 °C.
